# Like-named read-outs stand apart in the source and are kept apart here.
# Test system: Ctenocephalides felis
# Method: b) Ctenocephalides felis Adulticide Assay: C. felis Single Dose Screen
# Mortality of fleas was the primary endpoint in the assay. Fleas were considered dead if they didn't move or were on their sides and unable to walk or right themselves. […] The concentration chosen (1.26 μg/cm^2) was higher than that known to kill 90% of cat fleas (LC90) using the reference compound, permethrin.
# The test species was the cat flea (Ctenocephalides felis). The strain used was obtained from external suppliers as pupae and held in the laboratory under testing conditions until the adults had emerged. Fifteen (15) fleas were used in a minimum of four replicates against a single concentration level (approximately 60 fleas). The insects were selected to be in the adult life stage, aged between 3 and 7 days post emergence.
# The compounds to be tested were supplied as solids and were prepared in acetone as described below prior to testing. Samples were stored in a refrigerator (5±1° C.) unless otherwise specified.
# During the mortality testing, the temperature was maintained at 25±1° C. Humidity was maintained at 75±5%. The base (area=159 mm^2) of a 100 mL glass Erlenmeyer (conical) flask provided the treatment surface. Flasks were pretreated with Coatasil™ glass treatment to maximise bio-availability of test compounds by preventing them from binding to glass the surface. The base of the 100 mL Erlenmeyer flask was treated with 0.5 mL of test sample in acetone and gently swirled. This volume was sufficient to cover the base of the flask. Flasks were left to dry for 24 hours before flea exposure.
# Adult cat fleas were placed into a sorting chamber, which allowed fleas to jump into the Erlenmeyer flasks. Fifteen (15) adult cat fleas were collected in each flask. The top of the flasks were then covered in Parafilm™ and small holes were made to allow gas exchange. A 0.5 mL volume of acetone as a solvent control was applied to the base of an Erlenmeyer flask and the testing proceeded in the same manner described above. Cat fleas in the treatment containers were held under testing conditions for 8, 24 and/or 48 hours. Mortality was recorded at 8, 24, 8 and 24, or 24 and 48 hours Pooled 8, 24, 8 and 24, and 24 and 48 hour mortality data were converted to percentages and are summarized by Table 21, below.
SMILES,"C. felis Mortality (%) 8 h (8 h, data from laboratory 1)","C. felis Mortality (%) 24 h (24 h, data from laboratory 1)",further results
"Cn1nccc1-c1cc(Cl)ccc1NS(=O)(=O)C(F)(F)F (single isomer, unassigned) [Compound 93, N-[2-(1-methyl-1H-pyrazol-5-yl)-4-chlorophenyl]-trifluoromethanesulfonamide]",–,–,C. felis Mortality (%) 8 h (8 h): 5%; C. felis Mortality (%) 24 h (24 h): 9%
"CN(N=C(c1ccccc1)c1cc(Cl)ccc1NS(=O)(=O)C(F)(F)F)c1ccccc1 (single isomer, unassigned) [Compound 117]",12%,59%,–
"CN(N=C(c1ccccc1)c1cc(Cl)ccc1NS(=O)(=O)C(F)(F)F)c1ccccc1 (single isomer, unassigned) [Compound 118]",6%,27%,–
"CC(=NNc1ccccc1)c1cc(Cl)ccc1NS(=O)(=O)C(F)(F)F [Compound 12, N-[2-(1-phenylhydrazono)ethyl-4-chlorophenyl]-trifluoromethanesulfonamide]",–,–,C. felis Mortality (%) 8 h: 20^B %
CC(=NN(C)c1ccc(Cl)cc1Cl)c1cc(Cl)ccc1N(C)S(=O)(=O)C(F)(F)F [Compound 29],–,0%,C. felis Mortality (%) 48 h (data from laboratory 1): 58%
CCCN(N=C(C)c1cc(Cl)ccc1NS(=O)(=O)C(F)(F)F)c1ccc(Cl)cc1Cl [Compound 31],–,85%,C. felis Mortality (%) 48 h (data from laboratory 1): 100%
CC(=NN(c1ccc(Cl)cc1Cl)C(C)C)c1cc(Cl)ccc1NS(=O)(=O)C(F)(F)F [Compound 32],–,41%,C. felis Mortality (%) 48 h (data from laboratory 1): 100%
CC(=NN(C)c1ccccc1Cl)c1cc(Cl)ccc1N(C)S(=O)(=O)C(F)(F)F [Compound 40],–,0%,C. felis Mortality (%) 48 h (data from laboratory 1): 13%
CCCN(N=C(C)c1cc(Cl)ccc1NS(=O)(=O)C(F)(F)F)c1ccccc1Cl [Compound 42],–,67%,C. felis Mortality (%) 48 h (data from laboratory 1): 100%
CCCN(N=C(C)c1cc(Cl)ccc1NS(=O)(=O)C(F)(F)F)c1ccccc1F [Compound 45],–,27%,C. felis Mortality (%) 48 h (data from laboratory 1): 100%
CC(=NN(c1ccccc1F)C(C)C)c1cc(Cl)ccc1NS(=O)(=O)C(F)(F)F [Compound 46],44%,100%,–
CC(=NN(c1ccc(Br)cc1)C(C)C)c1cc(Cl)ccc1NS(=O)(=O)C(F)(F)F [Compound 52],51%,100%,–
"CC(=NNC(=O)c1ccc(Cl)cc1)c1cc(Cl)ccc1NS(=O)(=O)C(F)(F)F [Compound 57, N-[2-[1-(4-chlorobenzoyl)hydrazono]ethyl-4-chlorophenyl]-trifluoromethanesulfonamide]",–,–,C. felis Mortality (%) 8 h: 6%; C. felis Mortality (%) 24 h: 70%
CC(=NNC(=O)c1ccccc1Cl)c1cc(Cl)ccc1NS(=O)(=O)C(F)(F)F [Compound 58],2%,13%,–
CC(=NNC(=O)c1ccc(Cl)cc1Cl)c1cc(Cl)ccc1NS(=O)(=O)C(F)(F)F [Compound 61],12%,45%,–
CC(=NN(C)c1ccc(F)cc1)c1cc(Cl)ccc1NS(=O)(=O)C(F)(F)F [Compound 64],1%,50%,–
CC(=NN(c1cc(Cl)cc(Cl)c1)C(C)C)c1cc(Cl)ccc1NS(=O)(=O)C(F)(F)F [Compound 67],20%,85%,–
CC(=NN(c1ccc(Cl)c(Cl)c1)C(C)C)c1cc(Cl)ccc1NS(=O)(=O)C(F)(F)F [Compound 68],18%,73%,–
CCN(N=C(C)c1cc(Cl)ccc1NS(=O)(=O)C(F)(F)F)c1cccc(Cl)c1Cl [Compound 69],39%,92%,–
"COC(=O)NN=C(C)c1cc(Cl)ccc1NS(=O)(=O)C(F)(F)F [Compound 78, N-[2-[1-(methoxycarbonylhydrazono)ethyl]-4-chlorophenyl]-trifluoromethanesulfonamide]",–,–,C. felis Mortality (%) 8 h (8 h): 16%; C. felis Mortality (%) 24 h (24 h): 16%
CCC(=NNC(=O)c1ccc(Cl)cc1Cl)c1cc(Cl)ccc1NS(=O)(=O)C(F)(F)F [Compound 79],14%,92%,–
CCC(=NNC(=O)c1ccccc1Cl)c1cc(Cl)ccc1NS(=O)(=O)C(F)(F)F [Compound 80],17%,88%,–
O=S(=O)(Nc1ccc(Cl)cc1C(=NN1CCCCC1)c1ccccc1)C(F)(F)F [Compound 83],15%,17%,–

SMILES,"C. felis Mortality (%) 8 h (8 h, data from laboratory 1)","C. felis Mortality (%) 24 h (24 h, data from laboratory 1)",further results
O=S(=O)(Nc1ccc(Cl)cc1C(=NN1CCOCC1)c1ccccc1)C(F)(F)F [Compound 84],9%,76%,–
CCOC(=O)NN=C(C)c1cc(Cl)ccc1NS(=O)(=O)C(F)(F)F [Compound 85],3%,12%,–
CC(=NNC(=O)OC(C)(C)C)c1cc(Cl)ccc1NS(=O)(=O)C(F)(F)F [Compound 86],4%,26%,–
CCC(=NNC(=O)OC)c1cc(Cl)ccc1NS(=O)(=O)C(F)(F)F [Compound 87],7%,12%,–
CCOC(=O)NN=C(CC)c1cc(Cl)ccc1NS(=O)(=O)C(F)(F)F [Compound 88],6%,25%,–
CCC(=NNC(=O)OC(C)(C)C)c1cc(Cl)ccc1NS(=O)(=O)C(F)(F)F [Compound 89],6%,43%,–
"CC(=NNC(=O)Nc1ccccc1)c1cc(Cl)ccc1NS(=O)(=O)C(F)(F)F [Compound 90, N-[2-[1-(4-phenyl)semicarbazono]ethyl-4-chlorophenyl]-trifluoromethanesulfonamide]",–,–,C. felis Mortality (%) 8 h: 3%; C. felis Mortality (%) 24 h: 18%
CC(=NNC(=O)Nc1ccccc1Cl)c1cc(Cl)ccc1NS(=O)(=O)C(F)(F)F [Compound 91],10%,10%,–
CC(=NNC(=O)Nc1ccc(Cl)cc1)c1cc(Cl)ccc1NS(=O)(=O)C(F)(F)F [Compound 92],8%,8%,–
O=S(=O)(Nc1ccc(Cl)cc1-c1ccn(-c2ccccc2)n1)C(F)(F)F [Compound 94],6%,8%,–
O=S(=O)(Nc1ccc(Cl)cc1-c1cc[nH]n1)C(F)(F)F [Compound 95],25%,83%,–
CCN(N=C(C)c1cc(Cl)ccc1NS(=O)(=O)C(F)(F)F)c1ccc(C)cc1 [Compound 101],11%,90%,–
CC(=NN(c1ccc(C)cc1)C(C)C)c1cc(Cl)ccc1NS(=O)(=O)C(F)(F)F [Compound 102],3%,90%,–
CCCN(N=C(C)c1cc(Cl)ccc1NS(=O)(=O)C(F)(F)F)c1cccc(Cl)c1 [Compound 106],0%,25%,–
CC(=NN1CCCCCC1)c1cc(Cl)ccc1NS(=O)(=O)C(F)(F)F [Compound 107],2%,23%,–
"O=S(=O)(Nc1ccc(Cl)cc1-c1ccnn1-c1ccc(Cl)cc1)C(F)(F)F [Compound 108, N-[2-(1-4′-chlorophenyl-1H-pyrazol-5-yl)-4-chlorophenyl]-trifluoromethanesulfonamide]",–,–,C. felis Mortality (%) 8 h: 0%; C. felis Mortality (%) 24 h: 64%
COCN(c1ccc(Cl)cc1C(C)=NN(C)c1ccccc1)S(=O)(=O)C(F)(F)F [Compound 110],6%,52%,–
CC(=NN(C)c1ccccc1)c1cc(Cl)ccc1N(COC(=O)C(C)(C)C)S(=O)(=O)C(F)(F)F [Compound 111],14%,32%,–
CC(=NN(C)C)c1cc(Cl)ccc1NS(=O)(=O)C(F)(F)F [Compound 113],3%,66%,–
"CC(=NN(C)c1ccccc1)c1ccccc1NS(=O)(=O)C(F)(F)F [Compound 114, N-[2-[1-(N′-methyl-N′-phenyl)hydrazono]ethyl-phenyl]-trifluoromethanesulfonamide]",–,–,C. felis Mortality (%) 8 h: 56%; C. felis Mortality (%) 24 h: 86%
CC(=NN(C)c1ccccc1)c1cccc(Cl)c1NS(=O)(=O)C(F)(F)F [Compound 115],10%,63%,–
CN(N=C(c1cc(Cl)ccc1NS(=O)(=O)C(F)(F)F)C1CCCCC1)c1ccccc1 [Compound 119],7%,14%,–
O=S(=O)(Nc1ccc(Cl)cc1C(=NNc1ccc(Cl)cc1)c1ccccc1)C(F)(F)F [Compound 121],12%,41%,–
